Results published in ChEMBL document CHEMBL5727021, “Oxepan-2-yl-pyrazol-4-yl-heterocyclyl-carboxamide compounds and methods of use” (2018).

Target: Serine/threonine-protein kinase pim-1 (Homo sapiens, UniProt P11309)
Experiment: Biological Assay: Determination of the Pim kinase activity of a Formula I compound is possible by a number of direct and indirect detection methods. Certain exemplary compounds described herein were assayed for their Pim kinase binding activity, including isoforms Pim-1, Pim-2, andPim-3, (Example 901) and in vitro activity against tumor cells (Example 902).
Format: cell-based

Serine/threonine-protein kinase pim-1, sequence (P11309 whole entry, canonical isoform): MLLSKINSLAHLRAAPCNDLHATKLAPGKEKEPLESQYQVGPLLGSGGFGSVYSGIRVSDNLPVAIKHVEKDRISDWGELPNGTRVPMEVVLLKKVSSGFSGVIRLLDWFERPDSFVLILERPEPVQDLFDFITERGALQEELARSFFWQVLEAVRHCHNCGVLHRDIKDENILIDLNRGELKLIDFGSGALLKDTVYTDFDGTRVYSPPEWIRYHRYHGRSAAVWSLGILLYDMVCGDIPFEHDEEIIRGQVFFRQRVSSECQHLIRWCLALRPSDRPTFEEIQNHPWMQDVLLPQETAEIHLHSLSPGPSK

Ki: 0.047 nM
SMILES: N[C@@H]1CC[C@@H](c2c(NC(=O)c3csc(-c4c(F)cccc4F)n3)cnn2CC(F)F)OC[C@H]1F
